Drawing on US5461054A, “Anthracene-spiro-pyrrolindines” (Bayer Aktiengesellschaft, priority 1993, dated 1995), this text covers IC50 for two molecules.

The experiment has as its system monocyte-free human T cells. The experiment can be described thus: Inhibition of 5-HT-dependent T Cell Proliferation. It counts as cell-based. Conditions: PWM (1:200) and 5-HT (100 μm), 7 days, 3H-thymidine incorporation, 33 μM-0.1 μM. An excerpt: The in vitro activity of the compounds according to the invention results from their capability to inhibit T cell proliferation, which is previously stimulated by serotonin.
Inhibition of 5-HT-dependent T Cell Proliferation
Peripheral mononuclear blood cells (PBMC) are obtained from the buffy coat of the blood of healthy subjects. After isolation by means of isolymph gradients (Pharmacia), the PBMC are washed twice and used directly. Purified T cells are obtained by E rosette formation with sheep erythrocytes [cf. Blue, M. L., J. F. Daley, H. Levine, K. A. Craig and S. F. Schlossmann, 1986, Biosynthesis and surface expression of T8 by peripheral blood T4+ cells in vitro, J. Immunol. 137, 1202]. Monocytes are partially removed by adhesion to tissue culture plates or flasks. […] The cultures are treated with 1 μCi of ^3 H-thymidine for 6 h on the 7th day and collected on filter paper, and the incorporated radioactivity is determined by means of liquid scintillation counting.
The test substances are dissolved in 10 mM HCl in order to achieve a final concentration of 1 mM in each case. […] The inhibitory activity of the test substances is expressed as the IC50 in μM. […]

`O=C1CC2(CC3c4ccccc4C2c2ccccc23)C(=O)N1CCCN1CCN(c2ccc(F)cc2)CC1` (centres unmarked) [Example 1, 1'-{3-[4-(4-Fluorophenyl)-piperazin-1-yl]-propyl}-9,10-dihydro-9,10-ethano-anthracene-11-spiro-3'-pyrrolidine-2',5'-dione]: 2 µM corresponded to half-maximal inhibition (IC50).
The value for `O=C1CC2(CC3c4ccccc4C2c2ccccc23)C(=O)N1CCCN1CCN(c2ccccc2)CC1` (centres unmarked) [Example 2] was 5 µM.
